How the values were obtained:
Conditions in all cases: 72 h
Calu-3 [1] = experiment: drug sensitivity score (DSS) for viability; higher = more toxic; extreme values may be limits of the assay
U2OS [2] = experiment: as above
Caco-2 [3] = experiment: as above
HepG2 [4] = experiment: as above
Vero E6 [5] = experiment: as above
Calu-3 [6] = experiment: cell viability relative to DMSO; higher = less toxic
U2OS [7] = experiment: as above
Caco-2 [8] = experiment: as above
HepG2 [9] = experiment: as above
Vero E6 [10] = experiment: as above
U2OS [11] = experiment: relative viability EC50 (midpoint between 100% and the lowest measured viability); higher = less toxic
HepG2 [12] = experiment: as above
Vero E6 [13] = experiment: as above
Caco-2 [14] = experiment: as above
Calu-3 [15] = experiment: as above

SMILES	drug sensitivity score (Calu-3 [1])	drug sensitivity score (U2OS [2])	drug sensitivity score (Caco-2 [3])	drug sensitivity score (HepG2 [4])	drug sensitivity score (Vero E6 [5])	cell viability (Calu-3 [6]; 1 nM) [%]	cell viability (Calu-3 [6]; 10 nM) [%]	cell viability (Calu-3 [6]; 100 nM) [%]	cell viability (Calu-3 [6]; 1000 nM) [%]	cell viability (Calu-3 [6]; 10000 nM) [%]	cell viability (U2OS [7]; 1 nM) [%]	cell viability (U2OS [7]; 10 nM) [%]	cell viability (U2OS [7]; 100 nM) [%]	cell viability (U2OS [7]; 1000 nM) [%]	cell viability (U2OS [7]; 10000 nM) [%]	cell viability (Caco-2 [8]; 1 nM) [%]	cell viability (Caco-2 [8]; 10 nM) [%]	cell viability (Caco-2 [8]; 100 nM) [%]	cell viability (Caco-2 [8]; 1000 nM) [%]	cell viability (Caco-2 [8]; 10000 nM) [%]	cell viability (HepG2 [9]; 1 nM) [%]	cell viability (HepG2 [9]; 10 nM) [%]	cell viability (HepG2 [9]; 100 nM) [%]	cell viability (HepG2 [9]; 1000 nM) [%]	cell viability (HepG2 [9]; 10000 nM) [%]	cell viability (Vero E6 [10]; 1 nM) [%]	cell viability (Vero E6 [10]; 10 nM) [%]	cell viability (Vero E6 [10]; 100 nM) [%]	cell viability (Vero E6 [10]; 1000 nM) [%]	cell viability (Vero E6 [10]; 10000 nM) [%]	relative viability EC50 (U2OS [11]) [µM]	relative viability EC50 (HepG2 [12]) [µM]	relative viability EC50 (Vero E6 [13]) [µM]	relative viability EC50 (Caco-2 [14]) [µM]	relative viability EC50 (Calu-3 [15]) [µM]
Cc1ccc2nc(NCCN)c3ncc(C)n3c2c1	1.2	4.1	1.4	8.6	4.6	91.9	93	89.4	102	70.2	95.2	96.1	94.6	98.7	28.4	95.8	95.9	95.8	102	66	111	100	86.6	79.6	3.6	102	92.6	94.5	90.3	44	3.04	1.69	1.86	–	–
CC[C@@](C)(Nc1ccnc(-c2c[nH]c3ncccc23)n1)C(=O)NCC(F)(F)F [decernotinib]	–	0	0	0	0	–	–	–	–	–	96.5	101	94.2	98.3	98	97.4	97.3	99	95.4	109	94.2	101	96.6	107	109	100	100	105	99.1	107	> 10	> 10	> 10	> 10	–
Clc1ccc(C(Cn2ccnc2)OCc2ccc(Sc3ccccc3)cc2)c(Cl)c1 (configuration not stated) [fenticonazole]	0.1	0	1.7	1	0	100	88.6	97	101	85.7	101	97.8	100	99.1	96	102	94.8	95	91.3	73.3	116	108	114	110	68.5	109	108	106	107	97.8	> 10	–	> 10	–	> 10
OCCCNc1cc(-c2ccnc(Nc3cccc(Cl)c3)n2)ccn1	–	18.5	14.9	17.9	20.1	–	–	–	–	–	101	95	90.9	5.8	13	95.9	97.1	91.6	26.1	31.8	93.6	111	93	7.7	5.6	94.5	108	81.9	5.3	15.6	0.237	0.266	0.178	0.223	–
Brc1c(Br)c(Br)c2[nH]nnc2c1Br [4,5,6,7-tetrabromobenzotriazole]	–	0	0	0	0	–	–	–	–	–	97.2	98	97.9	100	99.2	93.8	107	90.4	95.7	99.2	117	93.9	102	93.3	107	105	103	101	99.4	103	> 10	> 10	> 10	> 10	–
COc1cc2nccc(Oc3ccc(NC(=O)NC4CC4)c(Cl)c3)c2cc1C(N)=O [lenvatinib]	2.3	2	1.4	0	0	115	98.1	89.6	94.7	68.3	105	101	101	90.8	76.3	106	95.5	94.7	91.2	75.6	110	108	105	110	95.4	102	106	106	99.1	99.6	> 10	> 10	> 10	> 10	–
CN1CCN(c2cc(-c3ccccc3)nc(N)n2)CC1	–	0	0	0	0	–	–	–	–	–	96.8	98.3	97.6	98	102	92.8	99	95.1	91.8	93	87.5	105	87.8	95.6	116	98.9	95.4	90.5	94.8	103	> 10	> 10	> 10	> 10	–

— the supplement of paper PMC13380429
